# Measured values as given in PMC4232510, “Identification of Functionally Important Residues of the Rat P2X4 Receptor by Alanine Scanning Mutagenesis of the Dorsal Fin and Left Flipper Domains” (PLoS ONE, 2014).
# Residue numbers refer to the chain shown, from its start.
# What was measured:
# Experiment in all cases: whole-cell patch clamp, HEK293T cells expressing mutant
# Format in all cases: cell-based
# Conditions in all cases: for relative responsiveness: 100 µM agonist 2 s, relative to ATP (100%)
# rP2X4R L284A mutant = biological target: T1, rP2X4R L284A mutant (Rattus norvegicus, UniProt P51577, L284A)
# T1 construct: expressed in transfected cells; host or cells: HEK293T
# T1 sequence (P51577 1-388 L284A): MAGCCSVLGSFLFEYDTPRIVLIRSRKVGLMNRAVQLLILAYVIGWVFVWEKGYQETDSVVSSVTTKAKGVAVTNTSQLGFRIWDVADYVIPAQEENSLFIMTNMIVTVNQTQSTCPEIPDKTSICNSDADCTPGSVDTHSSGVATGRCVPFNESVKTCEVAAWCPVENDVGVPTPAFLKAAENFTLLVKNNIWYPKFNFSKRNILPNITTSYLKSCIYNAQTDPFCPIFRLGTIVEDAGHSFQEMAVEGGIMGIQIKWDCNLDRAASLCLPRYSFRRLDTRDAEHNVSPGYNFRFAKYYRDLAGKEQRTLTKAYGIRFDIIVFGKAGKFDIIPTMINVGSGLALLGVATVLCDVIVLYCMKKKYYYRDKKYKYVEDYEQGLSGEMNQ
# rP2X4R L206A mutant = biological target: T2, rP2X4R L206A mutant (Rattus norvegicus, UniProt P51577, L206A)
# T2 construct: expressed in transfected cells; host or cells: HEK293T
# T2 sequence (P51577 1-388 L206A): T1 sequence (P51577 1-388 L284A) with L206A, A284L
# rP2X4R T210A mutant = biological target: T3, rP2X4R T210A mutant (Rattus norvegicus, UniProt P51577, T210A)
# T3 construct: expressed in transfected cells; host or cells: HEK293T
# T3 sequence (P51577 1-388 T210A): T1 sequence (P51577 1-388 L284A) with T210A, A284L
# [1] = 100 µM ATP 60 s, biexponential fit
# [2] = contribution of τdes2, 100 µM ATP 60 s
# [3] = decay after removal of 1 or 3 µM ATP, 3 µM IVM
# [4] = naïve receptors, 2–5 s application
# [5] = 3 µM IVM 4-6 min vs IVM-untreated
molecule,measurement,setting,value
2′(3′-O-(4-Benzoylbenzoyl)adenosine 5′-triphosphate [BzATP],relative responsiveness,rP2X4R L284A mutant,20.6±0.2 %
same,relative responsiveness,rP2X4R L206A mutant,33.7±8.0%
same,relative responsiveness,rP2X4R T210A mutant,23.9±3.2 %
"CSc1nc(N)c2ncn([C@@H]3O[C@H](COP(=O)(O)OP(=O)(O)OP(=O)(O)O)[C@@H](O)[C@H]3O)c2n1 [2-MeS-ATP, 2-(Methylthio)adenosine 5′-triphosphate]",relative responsiveness,rP2X4R L284A mutant,69.0±3.0%
same,relative responsiveness,rP2X4R L206A mutant,68.3±6.5%
same,relative responsiveness,rP2X4R T210A mutant,59.2±6.9%
Nc1ncnc2c1ncn2[C@@H]1O[C@H](COP(=O)(O)OP(=O)(O)OP(=O)(O)O)[C@@H](O)[C@H]1O [ATP],τdes1,rP2X4R L284A mutant; [1],0.8 ± 0.1 s
same,τdes2,rP2X4R L284A mutant; [1],7.2 ± 1.0 s
same,Imax,rP2X4R L284A mutant; 100–1000 µM ATP,2.4 ± 0.3 nA
same,Imax+IVM,rP2X4R L284A mutant; ATP after 3 µM IVM 4-6 min,4.1 ± 0.3 nA
same,A2 /(A1+A2),rP2X4R L284A mutant; [2],60 ± 5%
same,τoff +IVM,rP2X4R L284A mutant; [3],28 ± 2.3 s
same,EC50,rP2X4R L284A mutant; [4],3.9 ± 1.9 µM
same,τdes,"rP2X4R L284A mutant; weighted, 100 µM ATP 60 s",4.8 ± 0.9 s
same,τdes1,rP2X4R L206A mutant; [1],1.1 ± 0.2 s
same,τdes2,rP2X4R L206A mutant; [1],8.9 ± 2.2 s
same,Imax,rP2X4R L206A mutant; 100–1000 µM ATP,2.4 ± 0.3 nA
same,Imax+IVM,rP2X4R L206A mutant; ATP after 3 µM IVM 4-6 min,4.8 ± 0.8 nA
same,A2 /(A1+A2),rP2X4R L206A mutant; [2],70 ± 4%
same,τoff +IVM,rP2X4R L206A mutant; [3],9.0 ± 1.4 s
same,EC50,rP2X4R L206A mutant; [4],10 ± 4.1 µM
same,τdes,"rP2X4R L206A mutant; weighted, 100 µM ATP 60 s",6.3 ± 1.6 s
same,τdes1,rP2X4R T210A mutant; [1],2.0 ± 0.3 s
same,τdes2,rP2X4R T210A mutant; [1],14.4 ± 2.5 s
same,Imax,rP2X4R T210A mutant; 100–1000 µM ATP,1.9 ± 0.2 nA
same,Imax+IVM,rP2X4R T210A mutant; ATP after 3 µM IVM 4-6 min,3.5 ± 0.6 nA
same,A2 /(A1+A2),rP2X4R T210A mutant; [2],52 ± 8%
same,τoff +IVM,rP2X4R T210A mutant; [3],5.5 ± 0.4 s
same,EC50,rP2X4R T210A mutant; [4],26 ± 2.6 µM
same,τdes,"rP2X4R T210A mutant; weighted, 100 µM ATP 60 s",8.9 ± 2.1 s
"Nc1ncnc2c1ncn2[C@@H]1O[C@H](CO[P@](=O)(O)O[P@](=O)(O)O[P@@](=O)(O)S)[C@@H](O)[C@H]1O [ATPγS, Adenosine 5′-(γ-thio)triphosphate]",relative responsiveness,rP2X4R L284A mutant,32.4±8.2%
same,relative responsiveness,rP2X4R L206A mutant,39.6±8.4%
same,relative responsiveness,rP2X4R T210A mutant,34.2±4.1 %
"CC[C@H](C)[C@H]1O[C@]2(CC[C@@H]1C)C[C@@H]1C[C@@H](C/C=C(\C)[C@@H](O[C@H]3C[C@H](OC)[C@@H](O[C@H]4C[C@H](OC)[C@@H](O)[C@H](C)O4)[C@H](C)O3)[C@@H](C)/C=C/C=C3\CO[C@@H]4[C@H](O)C(C)=C[C@@H](C(=O)O1)[C@]34O)O2 [IVM, ivermectin]",Fold incr. Imax,rP2X4R L284A mutant; [5],1.7 ± 0.1 fold
same,Fold incr. Imax,rP2X4R L206A mutant; [5],1.7 ± 0.2 fold
same,Fold incr. Imax,rP2X4R T210A mutant; [5],1.8 ± 0.2 fold
"Nc1ncnc2c1ncn2C1OC(COP(=O)(O)CP(=O)(O)OP(=O)(O)O)C(O)C1O (stereo not drawn) [α,β-meATP, α,β-methyleneadenosine 5′-triphosphate]",relative responsiveness,rP2X4R L284A mutant,22.2±3.9%
same,relative responsiveness,rP2X4R L206A mutant,27.5±2.5%
same,relative responsiveness,rP2X4R T210A mutant,8.8±2.3 %
